Literature values, collected in PMC6851657 (Clinical Pharmacology and Therapeutics, 2019).

Details: ref fluconazole SimCYP compound file V16; cited from earlier work

## OC(Cn1cncn1)(Cn1cncn1)c1ccc(F)cc1F [Fluconazole, fluconazole]
  CL following i.v. administration: 1.01 L/h
  In vivo renal clearance in a 20–30 year healthy man: 0.7 L/h
  Volume of distribution at steady state: 0.748 L/kg
